The text below walks through data of patent US20200261576A1, “APOPTOTIC CELL-MEDIATED INDUCTION OF ANTIGEN SPECIFIC REGULATORY T-CELLS FOR THE THERAPY OF AUTOIMMUNE DISEASES IN ANIMALS AND HUMANS” (The United States of America, as represented by the …, priority 2013, published 2020).

In assay [1] the test system is SJL mice. Nature of the assay: Prevention of EAE in SJL mice (treatment before immunization). The assay is classed as in vivo. Here is the method: Antibodies used for in vivo. Anti-CD4 (clone Gk1.5), anti-CD8 antibody (clone 53-6.72), anti-TGFβ antibody (clone ID11) and mouse IgG1 (clone MOPC-21) were purchased from Bio X cell. Anti-CD20 antibody (clone 5D2) was a gift from Genentech. T cell depletion studies in EAE disease models. For EAE prevention studies SJL/J mice were either untreated or treated with CD4− (100 μg/mouse) and CD8− (50 μg/mouse) specific antibody (T cell depletion antibody). Some mice were immediately injected i.p. with pPLP or pOVA (25 μg/mouse) or PBS every other day for 16 days. All mice were immunized with pPLP and CFA (day 0). For EAE treatment studies, SJL mice were treated with CD4- and CD8-specific antibody and 5 μg of pPLP, pOVA or PBS i.p. every other day from day 12 to day 26 following immunization with pPLP (day 0). For EAE prevention studies, SJL mice were treated with CD4- and CD8-specific antibody at day −21, and 25 μg of pPLP, pOVA or PBS i.p. every other day from day −18 to day −2 before immunization with pPLP (day 0). In C57BL/6 mice, same T cell depletion regimen was utilized but pMOG (10 μg mouse) was administered via i.p. In some mice, anti-TGFβ or isotype control antibody (mIgG1) (200 μg/mice each day) were injected i.p. one day after T cell depletion. […] Mice were monitored for clinical score of disease and sacrificed at indicated time points. […]

Assay [2] relates to splenocytes. Nature of the assay: Antigen-recall T cell proliferation and cytokine production of splenocytes from SJL EAE mice. The assay is classed as cell-based. The following applies: therapy model; splenocytes restimulated with pPLP. Here is the method: Cytokine assays. Splenocytes were cultured at 37° C. in 5% CO2 for 2-3 days with either soluble CD3-specific antibody (anti-CD3) (0.5 μg/ml) or MT (heat-killed M. tuberculosis, H37RA, DIFCO) (50 μg/ml) or peptides (pMOG, pPLP) (0-50 μg/ml as indicated). Cytokines were quantified in culture supernatants by ELISA; TNF-α, IL-6, and IFN-γ (BioLegend) and IL-17 (eBioscience). EAE induction, scoring, analysis and in vitro cell cultures. Peptide-induced EAE was induced in SJL mice and C57BL/6 mice as previously reported^11,20. Individual mice were observed daily and clinical scores were assessed on a 0-5 scale as follows: 0, no abnormality; 1, limp tail or hind limb weakness; 2, limp tail and hind limb weakness; 3, hind limb paralysis; 4, hind limb paralysis and forelimb weakness; and 5, moribund. […] Radioactive incorporation was counted using a flatbed β-counter (Wallac). […]

In the case of “proteolipid protein peptide PLP139-151 (HSLGKWLGHPDKF; listed as Mus musculus)”, the “EAE clinical disease, prevention” value in assay [1] is on record as “failed to prevent EAE”. For the same substance, the “pPLP-specific T cell proliferation and inflammatory cytokine production” value in assay [2] was “no reduction”.
